Data: patent publication US20160279190A1, “MODULATION OF AXON DEGENERATION” (GENENTECH, INC., priority 2008, published 2016)
pIC50: −log10 of the molar value.

What was measured:
[1] = test system: DRGs; test: Campenot chamber local axon degeneration, anti-NGF in axon compartment; assay type: cell-based, mouse; details: inhibitor 15 μM; anti-NGF in axon compartment, 28 hours
Procedure: Teflon dividers (Tyler Research) were cleaned by washing in water and wiping them clean of any residual grease. Dividers were then soaked in Nochromix (Godax Laboratories)/sulfuric acid overnight, rinsed five times in distilled and autoclaved water (SQ water), boiled for 30 minutes, and then air-dried before use.
Mouse laminin (5 μg/ml in sterile filtered water; Invitrogen) was added to PDL coated 35 mm dishes (BD Biosciences) and they were incubated for 1 hour at 37° C., followed by two rinses in SQ water. The dishes were vacuum-dried and then air-dried in a laminar flow hood for 15 minutes. Prepared dishes were then scored with a pin rake (Tyler Research). […] High vacuum grease (VWR) was added to each Teflon divider under a dissection scope. The laminin coated PDL dishes were inverted and dropped onto the Teflon divider, with additional pressure added by use of a toothpick in the non-track-containing regions. Dishes were incubated for 1 hour at 37° C. Five hundred microliters of NBM+MC (50 ng/ml NGF) solution was added to each of the side compartments, and a grease barrier was added in front of the center cell slot.
Free E13.5 spinal cords were dissected from mouse embryos and placed into NBM+MC (25 ng/ml NGF) solution. DRGs were detached from the spinal cord with a tungsten needle. An NBM+MC-lubricated P200 pipette was used to move DRGs into a 1.5 ml tube. DRGs were pelleted with a tabletop centrifuge for 30 seconds. The supernate was discarded and 0.05% Trypsin/EDTA (cold) was added. The pellet was resolubilized with a pipette and incubated at 37° C. for 15 minutes with constant agitation (650 RPM). The sample was again centrifuged and the supernate discarded. The pellet was resuspended in warm NBM+MC (50 ng/ml NGF) solution and triturated with a flamed glass pipette 20 times, followed by trituration with a fire-bored glass pipette another 20 times. The samples were again centrifuged and the resulting pellets were resuspended in 0.5 ml NBM+MC (50 ng/ml NGF) solution. The cells were diluted to a final concentration of 2.5×10^6 cells/ml. The cell suspensions were loaded into a 1 ml syringe with a 22 gauge needle. The center slot of the Campenot divider was filled using the syringe (to a volume of at least 50 μl). The Campenot chamber was incubated overnight at 37° C. 2.5 ml NGF+MC (50 ng/ml NGF) solution was added to the center compartment and the grease gate was removed. The outer medium (cell body compartment) was replaced after three days with 2.5 ml NBM+MC medium (with 25 ng/ml NGF). After five days in culture, one distal compartment was washed three times with warmed NBM+MC (no NGF) solution. After the third wash, 500 μl NBM+MC (no NGF) solution was added to the axon compartment in combination with either 0.5% DMSO or an inhibitor. The cell body compartment was replaced with 2.5 ml NBM+MC medium (with 25 ng/ml NGF) containing either 0.5% DMSO or inhibitor.
After 28 hours of anti-NGF antibody treatment, 8% PFA/30% sucrose solution (see above) was added directly to the culture medium at a 1:1 dilution and incubated for 30 minutes. The Teflon divider was removed after the first 15 minutes of addition. The system was washed once with 2.5 ml PBS prior to immunostaining. Neurons were blocked in 5% BSA/0.2% triton in PBS for 30 minutes. The primary antibody Tuj1 (Covance) was added to a final dilution of 1:1000 in PBS containing 2% BSA and incubated overnight at 4° C. The dish was washed once with PBS. […] The dish was washed twice with PBS, and a 22×22 mm coverslip (VWR) was added with 350 μl of fluoromount G (Electron Microscopy Sciences). The neurons were visualized by use of a fluorescence microscope.
As described above, E13.5 DRGs were isolated and grown for 5 days in a Campenot chamber.

[2] = test system: CaMKK; details: CaMKK activity after ionomycin stimulation, transfected HeLa cells; published source (footnote e, cell marked c); read-out: Cellular IC50; cited from earlier work
[3] = test system: cerebellar granule neurons (CGNs); test: serum deprivation/KCl reduction-induced degeneration; assay type: cell-based, mouse; details: inhibitor 5 μM; 5 mM KCl, 24 hours
Procedure: Kinase inhibitors (inhibitors of GSK3, JNK, EGFR, p38, and CaMKK) were tested for their capacity to protect cultured cerebellar granule neurons (CGNs) following serum deprivation/KCl reduction. Briefly, CGNs isolated from P7 mouse brain were cultured on PDL- and laminin-coated 96-well tissue culture dishes in medium containing serum and potassium (Basal Medium Eagles including 29 mM KCl and 10% FBS) at 37° C. After 24 hours in culture, cells were switched to “deprivation” medium (Basal Medium Eagles including 5 mM KCl), alone or in combination with various small molecule inhibitors as shown in Table 8. After a further 24 hours in culture, the neurons were fixed with 4% paraformaldehyde and stained with a neuronal marker (anti-class III β-Tubulin, Covance). Image acquisition was performed using the ImageXpress automated imaging system (Molecular Devices).

For `O=C(O)c1ccc2c3c1cccc3c(=O)n1c3ccccc3nc21` [STO-609], the “Axon Compartment (axon protected when inhibitor is in axon compartment)” value [1] is given as “Yes (1)”, the “Cell Body Compartment (axon protected when inhibitor is in cell body compartment)” value [1] is given as “No (1)” and the pIC50 [2] is given as 5.52. For the same molecule, the “protection of cerebellar granule neurons from serum deprivation/KCl reduction” value [3] was “protect cerebellar granule neurons from serum deprivation/KCl reduction”.
